Experimental data published in patent publication EP3046573B1, “AMYLIN ANALOGUES” (Zealand Pharma A/S, priority 2013, dated 2015).
Numbered stars: 1 amine (or outer) side, 2 acyl side, 3 side chain; on linkers, the order of the positions; unused ones are H or OH. Bridge positions count the residues as written; N and C are the ends. Square brackets hold non-standard residues; d marks the D form. Peptide text beside a SMILES is read from it. * marks the point of attachment. C18 diacid = O=C(O)CCCCCCCCCCCCCCCCC(=O)*; C16 diacid = O=C(O)CCCCCCCCCCCCCCC(=O)*; γGlu = O=C(O)[C@H](CCC(=O)[*:2])N[*:1]; Palmitoyl = CCCCCCCCCCCCCCCC(=O)*; NMeI = CC[C@H](C)[C@H](NC)C(=O)O; Myristoyl = CCCCCCCCCCCCCC(=O)*; Sar = CNCC(=O)O

How the values were obtained:
[1] = Solubility assessment (turbidity absorbance at 325 nm); assay type: physicochemical; details: stock 2 mg/ml diluted 1:1, ambient temperature (typically 25°C), n=1; for Solubility, Acetate buffer pH 4: 100 mM acetate buffer pH 4.0; for Solubility, Acetate buffer pH 5: 100 mM acetate buffer pH 5.0; for Solubility, Histidine buffer pH 6: 100 mM histidine buffer pH 6.0; for Solubility, Histidine buffer pH 7: 100 mM histidine buffer pH 7.0; for Solubility, Phosphate buffer pH 6: 100 mM phosphate buffer pH 6.0; for Solubility, Phosphate buffer pH 7: 100 mM phosphate buffer pH 7.0; for Solubility, Phosphate buffer pH 7.5: 100 mM phosphate buffer pH7.5
Procedure, shortened: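 Read-out: turbidity as absorbance at 325 nm (280 nm also read), single samples, ambient temperature of typically 25°C. Samples were a 1:1 mix of 2 mg/ml stock (water, pH 2.5) with 100 mM acetate, histidine or phosphate buffers spanning pH 4.0–7.5. Cut-off: A325 ≤ 0.02 indicates ≥ 1 mg/ml.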

[2] = target: T1, human calcitonin receptor (hCTR2) (Homo sapiens, UniProt P30988); assay: hCTR2 assay: induction of cAMP (AlphaScreen cAMP Assay kit) in COS7 cells expressing hCTR2; assay type: cell-based
T1 construct: expressed in transfected cells
T1 sequence (P30988 25-474): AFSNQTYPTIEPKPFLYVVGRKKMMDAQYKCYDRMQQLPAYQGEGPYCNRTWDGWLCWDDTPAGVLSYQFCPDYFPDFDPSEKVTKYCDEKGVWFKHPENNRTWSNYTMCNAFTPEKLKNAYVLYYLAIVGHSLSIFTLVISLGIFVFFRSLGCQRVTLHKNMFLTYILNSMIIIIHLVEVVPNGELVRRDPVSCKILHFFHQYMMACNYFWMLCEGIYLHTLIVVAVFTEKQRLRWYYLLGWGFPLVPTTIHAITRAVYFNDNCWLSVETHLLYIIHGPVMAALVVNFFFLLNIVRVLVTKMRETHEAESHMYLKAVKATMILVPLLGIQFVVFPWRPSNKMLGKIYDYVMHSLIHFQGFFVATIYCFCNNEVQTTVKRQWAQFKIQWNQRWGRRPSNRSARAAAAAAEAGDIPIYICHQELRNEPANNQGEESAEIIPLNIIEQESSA
Procedure, shortened: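 cAMP induction was measured by AlphaScreen in COS7 cells stably expressing hCTR2 without RAMPs, after 15 min at 37° C with increasing peptide concentrations, 100 µM IBMX and 0.1% casein (Tyrode, pH 7.4). A 4-parameter logistic fit gave EC50 and % efficacy versus pramlintide.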

In the case of CC[C@H](C)[C@@H](C(=O)N[C@@H](CC(C)C)C(=O)N[C@@H](CO)C(=O)N[C@@H](CO)C(=O)N[C@H](C(=O)N[C@@H](CC(N)=O)C(=O)N[C@H](C(=O)NCC(=O)N[C@@H](CO)C(=O)N[C@@H](CC(N)=O)C(=O)N[C@H](C(=O)N1CCC[C@H]1C(N)=O)[C@@H](C)O)C(C)C)[C@@H](C)O)N(C)C(=O)[C@H](C)NC(=O)CN(C)C(=O)[C@H](Cc1ccccc1)NC(=O)[C@H](CC(N)=O)NC(=O)[C@H](CC(N)=O)NC(=O)[C@H](CO)NC(=O)[C@H](CO)NC(=O)[C@H](CCCNC(=N)N)NC(=O)[C@H](Cc1c[nH]cn1)NC(=O)[C@H](CC(C)C)NC(=O)[C@H](Cc1ccccc1)NC(=O)[C@H](CCC(=O)O)NC(=O)[C@H](C)NC(=O)[C@H](CC(C)C)NC(=O)[C@H](CCCNC(=N)N)NC(=O)[C@H](CCC(N)=O)NC(=O)[C@@H](NC(=O)[C@H](C)NC(=O)[C@@H]1CSSC[C@H](NC(=O)[C@H](CCCNC(=N)N)NC(=O)CC[C@H](NC(=O)CCCCCCCCCCCCCCCCC(=O)O)C(=O)O)C(=O)N[C@@H](CC(N)=O)C(=O)N[C@@H]([C@@H](C)O)C(=O)N[C@@H](C)C(=O)N[C@@H]([C@@H](C)O)C(=O)N1)[C@@H](C)O [Compound 89, [17CD]-isoGlu-RC()NTATC()ATQRLAEFLHRSSNNF-Gly(Me)-A-Ile(Me)-LSSTNVGSNTP-NH2] ({C18 diacid-γGlu}-RCNTATCATQRLAEFLHRSSNNF[Sar]A[NMeI]LSSTNVGSNTP-NH2; disulfide 2-7), the “Solubility, Acetate buffer pH 4” value [1] is reported as “SS (SS indicates solubility ≥ 1mg/ml)”, the “Solubility, Acetate buffer pH 5” value [1] is reported as “SS (SS indicates solubility ≥ 1mg/ml)” and the “Solubility, Histidine buffer pH 6” value [1] is reported as “SS (SS indicates solubility ≥ 1mg/ml)”. The “Solubility, Histidine buffer pH 7” value [1] was “SS (SS indicates solubility ≥ 1mg/ml)”, the “Solubility, Phosphate buffer pH 6” value [1] was “SS (SS indicates solubility ≥ 1mg/ml)” and the “Solubility, Phosphate buffer pH 7” value [1] was “SS (SS indicates solubility ≥ 1mg/ml)”. For the same molecule, the “Solubility, Phosphate buffer pH 7.5” value [1] was “SS (SS indicates solubility ≥ 1mg/ml)” and the EC50 [2] was 0.054 nM.

In the case of CC[C@H](C)[C@@H](C(=O)N[C@@H](CC(C)C)C(=O)N[C@@H](CO)C(=O)N[C@@H](CO)C(=O)N[C@H](C(=O)N[C@@H](CC(N)=O)C(=O)N[C@H](C(=O)NCC(=O)N[C@@H](CO)C(=O)N[C@@H](CC(N)=O)C(=O)N[C@H](C(=O)N1CCC[C@H]1C(N)=O)[C@@H](C)O)C(C)C)[C@@H](C)O)N(C)C(=O)[C@H](C)NC(=O)CN(C)C(=O)[C@H](Cc1ccccc1)NC(=O)[C@H](CC(N)=O)NC(=O)[C@H](CC(N)=O)NC(=O)[C@H](CO)NC(=O)[C@H](CO)NC(=O)[C@H](CCCNC(=N)N)NC(=O)[C@H](Cc1c[nH]cn1)NC(=O)[C@H](CC(C)C)NC(=O)[C@H](Cc1ccccc1)NC(=O)[C@H](CCC(=O)O)NC(=O)[C@H](C)NC(=O)[C@H](CC(C)C)NC(=O)[C@H](CCCNC(=N)N)NC(=O)[C@H](CCC(N)=O)NC(=O)[C@@H](NC(=O)[C@H](C)NC(=O)[C@@H]1CSSC[C@H](NC(=O)[C@H](CCCNC(=N)N)NC(=O)CC[C@H](NC(=O)CCCCCCCCCCCCCCC(=O)O)C(=O)O)C(=O)N[C@@H](CC(N)=O)C(=O)N[C@@H]([C@@H](C)O)C(=O)N[C@@H](C)C(=O)N[C@@H]([C@@H](C)O)C(=O)N1)[C@@H](C)O [Compound 90, [15CD]-isoGlu-RC()NTATC()ATQRLAEFLHRSSNNF-Gly(Me)-A-Ile(Me)-LSSTNVGSNTP-NH2] ({C16 diacid-γGlu}-RCNTATCATQRLAEFLHRSSNNF[Sar]A[NMeI]LSSTNVGSNTP-NH2; disulfide 2-7), the “Solubility, Acetate buffer pH 4” value [1] is reported as “SS (SS indicates solubility ≥ 1mg/ml)”, the “Solubility, Acetate buffer pH 5” value [1] is reported as “SS (SS indicates solubility ≥ 1mg/ml)” and the “Solubility, Histidine buffer pH 6” value [1] is reported as “SS (SS indicates solubility ≥ 1mg/ml)”. For the same molecule, the “Solubility, Histidine buffer pH 7” value [1] was “SS (SS indicates solubility ≥ 1mg/ml)”, the “Solubility, Phosphate buffer pH 6” value [1] was “SS (SS indicates solubility ≥ 1mg/ml)” and the “Solubility, Phosphate buffer pH 7” value [1] was “SS (SS indicates solubility ≥ 1mg/ml)”. For the same molecule, the “Solubility, Phosphate buffer pH 7.5” value [1] was “SS (SS indicates solubility ≥ 1mg/ml)” and the EC50 [2] was 0.066 nM.

With CCCCCCCCCCCCCC(=O)N[C@@H](CCC(=O)N[C@@H](CCCNC(=N)N)C(=O)N[C@H]1CSSC[C@@H](C(=O)N[C@@H](C)C(=O)N[C@H](C(=O)N[C@@H](CCC(N)=O)C(=O)N[C@@H](CCCNC(=N)N)C(=O)N[C@@H](CC(C)C)C(=O)N[C@@H](C)C(=O)N[C@@H](CCC(=O)O)C(=O)N[C@@H](Cc2ccccc2)C(=O)N[C@@H](CC(C)C)C(=O)N[C@@H](Cc2c[nH]cn2)C(=O)N[C@@H](CCCNC(=N)N)C(=O)N[C@@H](CO)C(=O)N[C@@H](CO)C(=O)N[C@@H](CC(N)=O)C(=O)N[C@@H](CC(N)=O)C(=O)N[C@@H](Cc2ccccc2)C(=O)N(C)CC(=O)N[C@@H](C)C(=O)N(C)[C@H](C(=O)N[C@@H](CC(C)C)C(=O)N[C@@H](CO)C(=O)N[C@@H](CO)C(=O)N[C@H](C(=O)N[C@@H](CC(N)=O)C(=O)N[C@H](C(=O)NCC(=O)N[C@@H](CO)C(=O)N[C@@H](CC(N)=O)C(=O)N[C@H](C(=O)N2CCC[C@H]2C(N)=O)[C@@H](C)O)C(C)C)[C@@H](C)O)[C@@H](C)CC)[C@@H](C)O)NC(=O)[C@H]([C@@H](C)O)NC(=O)[C@H](C)NC(=O)[C@H]([C@@H](C)O)NC(=O)[C@H](CC(N)=O)NC1=O)C(=O)O [Compound 91, [Tetradecanoyl]-isoGlu-RC()NTATC()ATQRLAEFLHRSSNNF-Gly(Me)-A-Ile(Me)-LSSTNVGSNTP-NH2] ({Myristoyl-γGlu}-RCNTATCATQRLAEFLHRSSNNF[Sar]A[NMeI]LSSTNVGSNTP-NH2; disulfide 2-7) the “Solubility, Acetate buffer pH 4” value [1] was “SS (SS indicates solubility ≥ 1mg/ml)”, the “Solubility, Acetate buffer pH 5” value [1] was “SS (SS indicates solubility ≥ 1mg/ml)” and the “Solubility, Histidine buffer pH 6” value [1] was “SS (SS indicates solubility ≥ 1mg/ml)”. For the same molecule, the “Solubility, Histidine buffer pH 7” value [1] was “SS (SS indicates solubility ≥ 1mg/ml)”, the “Solubility, Phosphate buffer pH 6” value [1] was “SS (SS indicates solubility ≥ 1mg/ml)” and the “Solubility, Phosphate buffer pH 7” value [1] was “SS (SS indicates solubility ≥ 1mg/ml)”. For the same molecule, the “Solubility, Phosphate buffer pH 7.5” value [1] was “SS (SS indicates solubility ≥ 1mg/ml)” and the EC50 [2] was 0.047 nM.

For CCCCCCCCCCCCCCCC(=O)N[C@@H](CCC(=O)N[C@@H](CCCNC(=N)N)C(=O)N[C@H]1CSSC[C@@H](C(=O)N[C@@H](C)C(=O)N[C@H](C(=O)N[C@@H](CCC(N)=O)C(=O)N[C@@H](CCCNC(=N)N)C(=O)N[C@@H](CC(C)C)C(=O)N[C@@H](C)C(=O)N[C@@H](CCC(=O)O)C(=O)N[C@@H](Cc2ccccc2)C(=O)N[C@@H](CC(C)C)C(=O)N[C@@H](Cc2c[nH]cn2)C(=O)N[C@@H](CCCNC(=N)N)C(=O)N[C@@H](CO)C(=O)N[C@@H](CO)C(=O)N[C@@H](CC(N)=O)C(=O)N[C@@H](CC(N)=O)C(=O)N[C@@H](Cc2ccccc2)C(=O)N(C)CC(=O)N[C@@H](C)C(=O)N(C)[C@H](C(=O)N[C@@H](CC(C)C)C(=O)N[C@@H](CO)C(=O)N[C@@H](CO)C(=O)N[C@H](C(=O)N[C@@H](CC(N)=O)C(=O)N[C@H](C(=O)NCC(=O)N[C@@H](CO)C(=O)N[C@@H](CC(N)=O)C(=O)N[C@H](C(=O)N2CCC[C@H]2C(N)=O)[C@@H](C)O)C(C)C)[C@@H](C)O)[C@@H](C)CC)[C@@H](C)O)NC(=O)[C@H]([C@@H](C)O)NC(=O)[C@H](C)NC(=O)[C@H]([C@@H](C)O)NC(=O)[C@H](CC(N)=O)NC1=O)C(=O)O [Compound 92, [Hexadecanoyl]-isoGlu-RC()NTATC()ATQRLAEFLHRSSNNF-Gly(Me)-A-Ile(Me)-LSSTNVGSNTP-NH2] ({Palmitoyl-γGlu}-RCNTATCATQRLAEFLHRSSNNF[Sar]A[NMeI]LSSTNVGSNTP-NH2; disulfide 2-7), the “Solubility, Acetate buffer pH 4” value [1] was “SS (SS indicates solubility ≥ 1mg/ml)”, the “Solubility, Acetate buffer pH 5” value [1] was “SS (SS indicates solubility ≥ 1mg/ml)” and the “Solubility, Histidine buffer pH 6” value [1] was “SS (SS indicates solubility ≥ 1mg/ml)”. The “Solubility, Histidine buffer pH 7” value [1] was “SS (SS indicates solubility ≥ 1mg/ml)”, the “Solubility, Phosphate buffer pH 6” value [1] was “SS (SS indicates solubility ≥ 1mg/ml)” and the “Solubility, Phosphate buffer pH 7” value [1] was “SS (SS indicates solubility ≥ 1mg/ml)”. For the same molecule, the “Solubility, Phosphate buffer pH 7.5” value [1] was “SS (SS indicates solubility ≥ 1mg/ml)” and the EC50 [2] was 0.054 nM.
